The source of these data is ChEMBL document CHEMBL6092206, “Discovery and Characterization of BAY-184: A New Potent and Selective Acylsulfonamide-Benzofuran In Vivo-Active KAT6AB Inhibitor” (J Med Chem, 2024).

Data set [1] deals with T1, Histone acetyltransferase KAT6A (Homo sapiens, UniProt Q92794). Put plainly: Inhibition of KAT6A in human MVLN cells assessed as decrease in estrogen receptor level incubated for 24 hrs by gene reporter assay. Type of data set: cell-based. (In general: A reporter such as luciferase makes a cellular process visible.)
Data set [2] is described as follows: Aqueous solubility of compound in PBS at pH 6.5 incubated for 24 hrs by HPLC-UV analysis. Type of data set: physicochemical.
Data set [3] is described as follows: Lipophilicity, logD of the compound at pH 7.5. The settings on record: buffer. The class given is physicochemical.
Data set [4] is described as follows: Dissociation constant, pKa of compound. Type of data set: physicochemical.
In data set [5] the target is T1, Histone acetyltransferase KAT6A. Put plainly: Inhibition of his-tagged human recombinant KAT6A (194 to 810 residues) expressed in baculovirus-infected Sf9 insect cells using H4-derived peptide as substrate incubated for 40 mins in presence of AcCoA by TR-FRET assay. (Time-resolved FRET reads energy transfer from a long-lived donor to a nearby acceptor.)
Data set [6] in a line: Efflux ratio of apparent permeability across basolateral to apical side over apical to basolateral side in human Caco-2 cells incubated for 2 hrs by LC-MS/MS analysis. Type of data set: ADME, cell-based. Conditions: caco-2, 2 h. Background: Caco-2 cells form a polarised layer with tight junctions and transporters.
For data set [7], the target named is Histone acetyltransferase KAT6B (Homo sapiens, UniProt Q8WYB5). Put plainly: Inhibition of C-terminal human recombinant KAT6B (431 to end residues) expressed in baculovirus-infected Sf9 insect cells using H4-derived peptide as substrate incubated for 30 mins in presence of AcCoA by TR-FRET assay.
Data set [8] in a line: Apparent permeability across apical to basolateral side in human Caco-2 cells at 2 uM pH 7.2 measured for 2 hrs by LC-MS/MS analysis. The class given is ADME, cell-based.

Structures are written as SMILES. ≈ marks a conversion by molar mass, not a printed value.

T1 sequence (Q92794 whole entry): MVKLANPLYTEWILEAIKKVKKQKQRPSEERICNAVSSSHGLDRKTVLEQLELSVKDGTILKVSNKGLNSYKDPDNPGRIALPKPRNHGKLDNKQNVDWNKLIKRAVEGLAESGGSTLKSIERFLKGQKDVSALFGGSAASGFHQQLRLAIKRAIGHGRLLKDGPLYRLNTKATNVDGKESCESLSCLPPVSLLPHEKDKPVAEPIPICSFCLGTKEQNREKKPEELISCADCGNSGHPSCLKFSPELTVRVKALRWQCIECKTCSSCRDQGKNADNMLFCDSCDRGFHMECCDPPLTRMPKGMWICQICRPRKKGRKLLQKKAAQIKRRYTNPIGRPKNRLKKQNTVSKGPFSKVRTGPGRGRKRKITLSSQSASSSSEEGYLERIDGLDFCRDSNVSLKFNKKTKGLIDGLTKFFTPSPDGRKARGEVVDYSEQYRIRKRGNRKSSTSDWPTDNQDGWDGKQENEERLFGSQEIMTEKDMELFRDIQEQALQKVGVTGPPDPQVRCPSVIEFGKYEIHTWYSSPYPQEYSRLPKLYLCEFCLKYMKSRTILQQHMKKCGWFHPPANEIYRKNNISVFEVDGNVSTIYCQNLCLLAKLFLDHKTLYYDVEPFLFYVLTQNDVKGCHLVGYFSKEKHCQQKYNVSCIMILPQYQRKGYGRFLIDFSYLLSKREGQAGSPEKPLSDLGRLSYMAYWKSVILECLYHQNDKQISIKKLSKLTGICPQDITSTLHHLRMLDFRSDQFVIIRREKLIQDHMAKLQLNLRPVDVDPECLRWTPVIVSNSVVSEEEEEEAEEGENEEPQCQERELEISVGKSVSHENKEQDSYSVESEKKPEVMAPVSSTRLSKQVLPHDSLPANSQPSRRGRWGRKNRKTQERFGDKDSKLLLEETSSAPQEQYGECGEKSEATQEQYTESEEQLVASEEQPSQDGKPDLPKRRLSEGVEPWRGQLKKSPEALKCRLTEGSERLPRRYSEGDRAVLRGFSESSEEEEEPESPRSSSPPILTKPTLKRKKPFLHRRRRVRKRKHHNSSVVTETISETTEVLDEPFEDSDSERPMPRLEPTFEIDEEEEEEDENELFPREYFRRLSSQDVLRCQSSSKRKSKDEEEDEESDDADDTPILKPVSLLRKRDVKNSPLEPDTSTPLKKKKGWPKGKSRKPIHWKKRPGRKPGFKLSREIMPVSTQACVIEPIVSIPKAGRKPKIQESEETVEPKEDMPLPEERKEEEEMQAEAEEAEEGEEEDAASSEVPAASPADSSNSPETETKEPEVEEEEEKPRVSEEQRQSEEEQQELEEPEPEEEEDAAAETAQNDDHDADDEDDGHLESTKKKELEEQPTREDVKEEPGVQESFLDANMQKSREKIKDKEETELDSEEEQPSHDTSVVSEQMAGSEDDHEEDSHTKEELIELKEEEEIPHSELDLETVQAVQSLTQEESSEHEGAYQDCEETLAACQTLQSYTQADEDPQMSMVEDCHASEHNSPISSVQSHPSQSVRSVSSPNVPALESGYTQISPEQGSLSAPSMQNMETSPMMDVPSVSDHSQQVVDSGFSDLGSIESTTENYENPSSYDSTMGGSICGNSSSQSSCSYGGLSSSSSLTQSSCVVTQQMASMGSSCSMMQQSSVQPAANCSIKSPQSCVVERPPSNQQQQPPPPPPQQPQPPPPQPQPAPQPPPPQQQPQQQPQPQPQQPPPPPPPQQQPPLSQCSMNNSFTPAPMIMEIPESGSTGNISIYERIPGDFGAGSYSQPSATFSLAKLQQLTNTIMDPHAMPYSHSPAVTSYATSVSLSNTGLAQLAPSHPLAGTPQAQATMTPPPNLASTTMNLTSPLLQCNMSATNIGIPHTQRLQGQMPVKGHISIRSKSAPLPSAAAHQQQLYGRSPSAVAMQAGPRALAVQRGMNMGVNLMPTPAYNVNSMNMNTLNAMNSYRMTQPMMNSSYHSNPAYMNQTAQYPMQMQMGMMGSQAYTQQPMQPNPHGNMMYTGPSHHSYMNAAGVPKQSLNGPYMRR
Sequence of Histone acetyltransferase KAT6B (Q8WYB5 whole entry): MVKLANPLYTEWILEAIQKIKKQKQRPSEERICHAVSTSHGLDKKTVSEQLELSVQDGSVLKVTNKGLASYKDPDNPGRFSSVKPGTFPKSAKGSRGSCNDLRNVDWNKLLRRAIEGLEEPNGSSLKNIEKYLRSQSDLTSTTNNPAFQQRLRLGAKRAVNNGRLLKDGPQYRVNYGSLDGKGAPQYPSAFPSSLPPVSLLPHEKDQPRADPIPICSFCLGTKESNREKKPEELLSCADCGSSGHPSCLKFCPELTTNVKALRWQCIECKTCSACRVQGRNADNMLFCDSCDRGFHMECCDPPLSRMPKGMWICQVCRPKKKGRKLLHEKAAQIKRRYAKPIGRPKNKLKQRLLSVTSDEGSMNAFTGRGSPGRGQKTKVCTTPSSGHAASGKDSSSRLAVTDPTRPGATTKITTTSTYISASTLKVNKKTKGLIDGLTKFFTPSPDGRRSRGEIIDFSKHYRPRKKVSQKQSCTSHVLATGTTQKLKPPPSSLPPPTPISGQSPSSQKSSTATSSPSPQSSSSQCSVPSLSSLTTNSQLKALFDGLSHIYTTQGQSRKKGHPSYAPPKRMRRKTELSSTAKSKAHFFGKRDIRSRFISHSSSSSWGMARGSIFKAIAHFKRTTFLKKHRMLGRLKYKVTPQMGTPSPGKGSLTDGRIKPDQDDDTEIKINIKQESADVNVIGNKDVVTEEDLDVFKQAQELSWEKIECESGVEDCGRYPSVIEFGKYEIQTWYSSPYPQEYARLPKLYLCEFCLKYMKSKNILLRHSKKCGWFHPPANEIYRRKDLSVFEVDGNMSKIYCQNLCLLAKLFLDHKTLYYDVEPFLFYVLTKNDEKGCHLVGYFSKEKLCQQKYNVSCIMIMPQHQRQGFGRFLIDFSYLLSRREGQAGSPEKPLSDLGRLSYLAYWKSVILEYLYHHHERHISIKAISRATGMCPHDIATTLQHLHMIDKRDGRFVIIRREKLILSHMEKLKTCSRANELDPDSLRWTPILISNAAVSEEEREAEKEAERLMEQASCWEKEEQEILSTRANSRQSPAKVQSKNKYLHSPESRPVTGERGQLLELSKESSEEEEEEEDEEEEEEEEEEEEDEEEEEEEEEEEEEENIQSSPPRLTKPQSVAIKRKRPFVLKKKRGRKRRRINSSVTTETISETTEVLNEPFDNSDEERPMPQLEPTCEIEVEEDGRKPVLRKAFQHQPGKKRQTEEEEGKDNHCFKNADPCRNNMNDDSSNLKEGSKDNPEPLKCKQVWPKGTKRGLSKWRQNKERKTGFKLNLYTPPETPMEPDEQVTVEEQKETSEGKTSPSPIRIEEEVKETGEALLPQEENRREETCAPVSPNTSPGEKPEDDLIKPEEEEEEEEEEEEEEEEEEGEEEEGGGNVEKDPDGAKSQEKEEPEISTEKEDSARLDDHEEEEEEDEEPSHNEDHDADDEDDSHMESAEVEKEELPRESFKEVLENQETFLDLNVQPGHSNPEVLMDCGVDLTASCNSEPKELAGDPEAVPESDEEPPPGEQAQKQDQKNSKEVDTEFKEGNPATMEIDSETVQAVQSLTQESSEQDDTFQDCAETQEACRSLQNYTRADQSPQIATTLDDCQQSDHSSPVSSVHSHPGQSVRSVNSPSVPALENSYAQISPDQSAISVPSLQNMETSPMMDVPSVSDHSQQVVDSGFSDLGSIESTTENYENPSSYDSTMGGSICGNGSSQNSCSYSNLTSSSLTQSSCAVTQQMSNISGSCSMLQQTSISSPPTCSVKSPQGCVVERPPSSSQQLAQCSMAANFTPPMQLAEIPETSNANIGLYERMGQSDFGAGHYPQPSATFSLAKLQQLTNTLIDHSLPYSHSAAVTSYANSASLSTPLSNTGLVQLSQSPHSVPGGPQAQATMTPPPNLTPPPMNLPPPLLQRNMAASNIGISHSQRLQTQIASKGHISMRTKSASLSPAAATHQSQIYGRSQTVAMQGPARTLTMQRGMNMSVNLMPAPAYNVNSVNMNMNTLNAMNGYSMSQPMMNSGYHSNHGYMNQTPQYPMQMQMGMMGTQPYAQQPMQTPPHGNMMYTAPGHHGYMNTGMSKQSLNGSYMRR

In the case of `O=C(NS(=O)(=O)c1ccccc1-c1ccccc1)c1cc2ccc(C(F)F)cc2o1`, the IC50 (usually the concentration that gives 50% inhibition) in data set [1] was over 20000 nM.
As to `CN(C)c1cc(F)c2cc(C(=O)NS(=O)(=O)c3ccccc3-c3ccccc3)oc2c1`, the IC50 in data set [1] was 60 nM. For the same molecule, the solubility (usually the concentration that dissolves in the medium under given conditions) at 24 h in data set [2] turned out to be 264 µg/mL (≈ 602 µM). Moreover, the logD (in general, lipophilicity at a set pH, counting ionised and neutral species) in data set [3] was found to be 2.
Turning to `CCCOc1ccccc1S(=O)(=O)NC(=O)c1cc2c(C)cc(OC)cc2o1`, the IC50 in data set [1] stood at 6540 nM; in data set [5] it was 19 nM. Besides, in data set [4], the pKa – broadly, the negative logarithm of the acid dissociation constant – is 4.
The like results for `CCOc1cccc(-c2cccc(Cl)c2)c1S(=O)(=O)NC(=O)c1cc2c(C)cc(OC)cc2o1` were, in that order, 3680 nM, 11 nM and 6.
The like results for `COc1cc(C)c2cc(C(=O)NS(=O)(=O)c3ccccc3OC)oc2c1` were, in that order, 13200 nM, 46 nM and 3.2.
As to `O=C(NS(=O)(=O)c1ccccc1-c1ccccc1)c1cc2ccc(OCCO)cc2o1`, the values for the IC50 in data set [1] and in data set [5] were over 20000 nM and 1370 nM, respectively.
Consider `COc1cc(C)c2cc(C(=O)NS(=O)(=O)c3ccc(C)cc3-c3ccccc3)oc2c1`, for which the half-inhibitory concentration (IC50) was over 20000 nM in data set [1] and 10 nM in data set [5]. In data set [4], this molecule came in with a pKa of 4.7.
Turning to `CCOc1cccc(-c2ccccc2)c1S(=O)(=O)NC(=O)c1cc2c(C)cc(OC)cc2o1`, the IC50 in data set [1] is 1400 nM; in data set [5], 32 nM. The molecule further registered a pKa in data set [4] of 5.6.
As for `O=C(NS(=O)(=O)c1ccccc1-c1ccccc1)c1cc2ccc(N3CCOCC3)cc2o1`, the IC50 in data set [1] and in data set [5] was over 20000 nM throughout.
On to `COCCc1ccc2cc(C(=O)NS(=O)(=O)c3ccccc3-c3ccccc3)oc2c1`, for which the 50% inhibitory concentration (IC50) in data set [1] was over 15600 nM.
Take `COc1cc(C)c2cc(C(=O)NS(=O)(=O)c3ccccc3-c3ccccc3)oc2c1`: the 50% inhibitory concentration (IC50) in data set [1] is over 4600 nM; in data set [7], 76 nM; in data set [5], 24 nM. Moreover, the Ratio in data set [6] is listed as 1. Besides, in data set [4], the pKa amounted to 4.3. In data set [8] (caco-2, pH 7.2, 2 h, 2 µM), the apparent permeability coefficient (Papp) (as a rule, a coefficient for how fast a substance crosses the barrier) was 6.4 ×10⁻⁶ cm/s.
As for `COc1cccc2cc(C(=O)NS(=O)(=O)c3ccccc3-c3ccccc3)oc12`, the 50% inhibitory concentration (IC50) in data set [1] is 4520 nM; in data set [7], 351 nM; in data set [5], 142 nM.
Turning to `CCOc1ccccc1S(=O)(=O)NC(=O)c1cc2c(OC)cc(OC)cc2o1`, the apparent permeability from apical to basolateral (Papp A→B) (usually the apparent permeability from the apical to the basolateral side of a cell layer) at 2 h, 2 µM in data set [8] (Caco-2, pH 7.2) worked out at 2.8 ×10⁻⁶ cm/s.
Consider `COc1cc(C)c2cc(C(=O)NS(=O)(=O)c3ccc(-c4ccccc4)cc3)oc2c1`, for which the results for the 50% inhibitory concentration (IC50) in data set [1] and in data set [5] were over 17600 nM and 46 nM, respectively. The molecule also had a pKa in data set [4] of 5.8.
Regarding `COc1ccc2oc(C(=O)NS(=O)(=O)c3ccccc3-c3ccccc3)cc2c1`, the results for the IC50 in data set [7] and in data set [5] were 9020 nM and 1800 nM, respectively.
As for `CNc1ccc2cc(C(=O)NS(=O)(=O)c3ccccc3-c3ccccc3)oc2c1`, the IC50 in data set [1] was found to be 2580 nM.
`O=C(NS(=O)(=O)c1ccccc1-c1ccccc1)c1cc2ccc(C3CC3)cc2o1`: the IC50 in data set [1] was 1020 nM.
As to `CCCOc1ccc2cc(C(=O)NS(=O)(=O)c3ccccc3-c3ccccc3)oc2c1`, the half-maximal inhibitory concentration (IC50) in data set [1] is 8680 nM; in data set [5], 1540 nM.
The like results for `CCCN(C)c1ccc2cc(C(=O)NS(=O)(=O)c3ccccc3-c3ccccc3)oc2c1` were, in that order, over 20000 nM and 751 nM.
For `COCCN(C)c1ccc2cc(C(=O)NS(=O)(=O)c3ccccc3-c3ccccc3)oc2c1` the same measures were over 15500 nM and 1350 nM.
Turning to `COc1cc(C)cc2oc(C(=O)NS(=O)(=O)c3ccccc3-c3ccccc3)cc12`, the 50% inhibitory concentration (IC50) in data set [1] was 10000 nM.
Still for that read-out and setting: the same measure for `C=C(C)c1ccc2cc(C(=O)NS(=O)(=O)c3ccccc3-c3ccccc3)oc2c1`: 1320 nM; for `Cc1cc(C)c2cc(C(=O)NS(=O)(=O)c3ccccc3-c3ccccc3)oc2c1`: 2500 nM.
Turning to `COc1cc(C)c2cc(C(=O)NS(=O)(=O)c3ccc(C)cc3)oc2c1`, the concentration for half-maximal inhibition (IC50) is 18200 nM in data set [1] and 107 nM in data set [5]. The pKa in data set [4] came to 3.
In the case of `Cc1cc(Br)cc2oc(C(=O)NS(=O)(=O)c3ccccc3-c3ccccc3)cc12`, the concentration for half-maximal inhibition (IC50) is over 20000 nM in data set [1] and 66 nM in data set [5].
As to `O=C(NS(=O)(=O)c1ccccc1-c1ccccc1)c1cc2ccccc2o1`, the concentration for half-maximal inhibition (IC50) was over 20000 nM in data set [1], 10500 nM in data set [7] and 2160 nM in data set [5].
`CC(C)c1ccc2cc(C(=O)NS(=O)(=O)c3ccccc3-c3ccccc3)oc2c1`: the IC50 in data set [1] worked out at 3020 nM.
Turning to `CCOc1ccc2cc(C(=O)NS(=O)(=O)c3ccccc3-c3ccccc3)oc2c1`, the IC50 was 9750 nM in data set [1] and 554 nM in data set [5].
As for `COc1cccc2oc(C(=O)NS(=O)(=O)c3ccccc3-c3ccccc3)cc12`, the IC50 in data set [7] is 3140 nM; in data set [5], 1350 nM.
Regarding `O=C(NS(=O)(=O)c1ccccc1-c1ccccc1)c1cc2c(F)cc(C3CC3)cc2o1`, the IC50 in data set [1] was 1000 nM; in data set [5], 173 nM.
As to `COc1ccc2cc(C(=O)NS(=O)(=O)c3ccccc3-c3ccccc3)oc2c1`, the IC50 in data set [1] was found to be 7620 nM; in data set [7], 368 nM; in data set [5] it was 260 nM.
Turning to `Cc1cc(N(C)C)cc2oc(C(=O)NS(=O)(=O)c3ccccc3-c3ccccc3)cc12`, in data set [1], the IC50 was over 20000 nM.
Still for that read-out and setting: then `Cc1ccc2cc(C(=O)NS(=O)(=O)c3ccccc3-c3ccccc3)oc2c1`, with over 11000 nM.
In the case of `COc1cc(C)c2cc(C(=O)NS(=O)(=O)c3ccc(Cl)cc3)oc2c1`, the results for the concentration for half-maximal inhibition (IC50) in data set [1] and in data set [5] were 2280 nM and 75 nM, respectively. Besides, the pKa in data set [4] is 2.9.
With `Cc1cccc2oc(C(=O)NS(=O)(=O)c3ccccc3-c3ccccc3)cc12`, the IC50 worked out at 2570 nM in data set [7] and 454 nM in data set [5].
In the case of `COc1cc(C)c2cc(C(=O)NS(=O)(=O)c3cccc4ccc(C)nc34)oc2c1`, the concentration for half-maximal inhibition (IC50) in data set [1] came out at 2570 nM; in data set [5], 13 nM.
